In the supplement of paper PMC13380429:

Columns and labels:
Settings in all cases: 72 h
[1] = system: Vero E6; test: drug sensitivity score (DSS) for viability; higher = more toxic; extreme values may be limits of the assay
[2] = system: Caco-2; test: as above
[3] = system: HepG2; test: as above
[4] = system: Calu-3; test: as above
[5] = system: U2OS; test: as above
[6] = system: Vero E6; test: cell viability relative to DMSO; higher = less toxic
[7] = system: Caco-2; test: as above
[8] = system: HepG2; test: as above
[9] = system: Calu-3; test: as above
[10] = system: U2OS; test: as above
[11] = system: Vero E6; test: relative viability EC50 (midpoint between 100% and the lowest measured viability); higher = less toxic
[12] = system: Caco-2; test: as above
[13] = system: HepG2; test: as above
[14] = system: Calu-3; test: as above
[15] = system: U2OS; test: as above

Row | SMILES | drug sensitivity score [1] | drug sensitivity score [2] | drug sensitivity score [3] | drug sensitivity score [4] | drug sensitivity score [5] | cell viability ([6]; 1 nM) | cell viability ([6]; 10 nM) | cell viability ([6]; 100 nM) | cell viability ([6]; 1000 nM) | cell viability ([6]; 10000 nM) | cell viability ([7]; 1 nM) | cell viability ([7]; 10 nM) | cell viability ([7]; 100 nM) | cell viability ([7]; 1000 nM) | cell viability ([7]; 10000 nM) | cell viability ([8]; 1 nM) | cell viability ([8]; 10 nM) | cell viability ([8]; 100 nM) | cell viability ([8]; 1000 nM) | cell viability ([8]; 10000 nM) | cell viability ([9]; 1 nM) | cell viability ([9]; 10 nM) | cell viability ([9]; 100 nM) | cell viability ([9]; 1000 nM) | cell viability ([9]; 10000 nM) | cell viability ([10]; 1 nM) | cell viability ([10]; 10 nM) | cell viability ([10]; 100 nM) | cell viability ([10]; 1000 nM) | cell viability ([10]; 10000 nM) | relative viability EC50 [11] | relative viability EC50 [12] | relative viability EC50 [13] | relative viability EC50 [14] | relative viability EC50 [15]
1 | CCCCC(CC)CCC(CC(C)C)OS(=O)(=O)O (stereo not given) [sodium-tetradecyl-sulfate] | 0 | 0 | 0 | 0 | 0 | 101% | 96.1% | 99.7% | 91% | 101% | 100% | 83% | 95.5% | 87.6% | 104% | 93.1% | 96.5% | 112% | 86.2% | 98.6% | 98.8% | 91.9% | 103% | 102% | 97.5% | 103% | 96% | 98.3% | 104% | 99.5% | > 10 µM | > 10 µM | > 10 µM | > 10 µM | > 10 µM
2 | C[N+]1(C)[C@@H]2C[C@@H](OC(=O)C(O)(c3cccs3)c3cccs3)C[C@H]1[C@@H]1O[C@@H]12 [tiotropium] | 0 | 0 | 0 | 0 | 0 | 103% | 98.6% | 101% | 95.9% | 102% | 105% | 100% | 101% | 99.5% | 104% | 102% | 93.9% | 98.8% | 99.4% | 104% | 102% | 98.7% | 96.4% | 95.2% | 108% | 93.4% | 94% | 95.3% | 96.8% | 108% | > 10 µM | > 10 µM | > 10 µM | > 10 µM | > 10 µM
3 | CC(C)(N)CC12CC3CC(CC(C3)C1)C2 [somantadine] | 0 | 0 | 1.9 | 0 | 0 | 97.1% | 98.3% | 100% | 100% | 96.1% | 100% | 95.9% | 104% | 96.2% | 93.4% | 100% | 101% | 95.5% | 84.8% | 87.4% | 100% | 99.8% | 99.1% | 94.3% | 96.8% | 100% | 95.5% | 99.5% | 91.7% | 92.4% | > 10 µM | > 10 µM | > 10 µM | > 10 µM | > 10 µM
4 | Cc1ccc(O)c(N=Nc2ccccc2)n1 [SIB-1757] | 0 | 0.1 | 0 | 0 | 0 | 98.1% | 94.6% | 96.7% | 99% | 92.5% | 92.4% | 103% | 98.6% | 103% | 86.2% | 108% | 110% | 107% | 108% | 94.5% | 99.8% | 107% | 111% | 99.9% | 92.8% | 104% | 107% | 102% | 103% | 95.9% | > 10 µM | > 10 µM | > 10 µM | > 10 µM | > 10 µM
5 | COC(=O)c1csc(C(=O)c2c[nH]c3ccccc23)n1 [ITE] | 0 | 0 | 2 | 0 | 0 | 95% | 96.1% | 92.1% | 98.6% | 97.4% | 96.1% | 105% | 101% | 108% | 94.2% | 104% | 112% | 92.8% | 84.8% | 85.5% | 105% | 101% | 103% | 105% | 97.5% | 101% | 104% | 97.1% | 102% | 96.3% | > 10 µM | > 10 µM | > 10 µM | > 10 µM | > 10 µM
6 | O=c1[nH]cnc2c1ncn2[C@H]1CC[C@@H](CO)O1 [didanosine] | 0 | 0 | 0 | 0 | 0 | 96% | 97.3% | 95.2% | 98% | 107% | 107% | 88.7% | 97.9% | 85.3% | 108% | 99.6% | 84.8% | 90.7% | 90.8% | 105% | 96.3% | 85% | 114% | 106% | 99.9% | 99.4% | 93.6% | 102% | 101% | 107% | > 10 µM | > 10 µM | > 10 µM | > 10 µM | > 10 µM
7 | O=C1Cc2c([nH]c3ccc(Br)cc23)-c2ncccc2N1 [1-azakenpaullone] | 0 | 0 | 0 | 0 | 0 | 91.7% | 103% | 96.5% | 101% | 105% | 98.1% | 99.7% | 95.4% | 109% | 104% | 89.6% | 96.3% | 92.8% | 104% | 105% | 102% | 94.6% | 101% | 104% | 118% | 99.8% | 95.9% | 99.3% | 98.4% | 96.1% | > 10 µM | > 10 µM | > 10 µM | > 10 µM | > 10 µM
